# Results taken from ChEMBL document CHEMBL1201862, “PubChem BioAssay data set” (2004).
#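 48-hour exposure; five concentrations; linearly interpolated endpoints. GI50 = concentration required for 50% inhibition of growth.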 Activity calls are given as the source filed them. No stated cut-off is given here; in the data, active = GI50 up to about 1.1 µM and inactive = higher.
# Key:
# Assay in all cases: DTP human tumour cell line panel, 48 h
# MDA-MB-435 = test system: MDA-MB-435
# SK-MEL-2 = test system: SK-MEL-2
# HOP-92 = test system: HOP-92
# HCT-15 = test system: HCT-15
# OVCAR-5 = test system: OVCAR-5
# SK-OV-3 = test system: SK-OV-3
# OVCAR-8 = test system: OVCAR-8
# SF-295 = test system: SF-295
# M14 = test system: M14
# UACC-62 = test system: UACC-62
# BT-549 = test system: BT-549
# SK-MEL-28 = test system: SK-MEL-28
# SK-MEL-5 = test system: SK-MEL-5
# OVCAR-3 = test system: OVCAR-3
# NCI-H23 = test system: NCI-H23
# U-251 = test system: U-251
# NCI-H460 = test system: NCI-H460
# HT-29 = test system: HT-29
# MOLT-4 = test system: MOLT-4
# T47D = test system: T47D
Compound,GI50 (MDA-MB-435),GI50 (SK-MEL-2),GI50 (HOP-92),GI50 (HCT-15) [µM],GI50 (OVCAR-5),GI50 (SK-OV-3),GI50 (OVCAR-8),GI50 (SF-295),GI50 (M14),GI50 (UACC-62),GI50 (BT-549),GI50 (SK-MEL-28),GI50 (SK-MEL-5),GI50 (OVCAR-3),GI50 (NCI-H23),GI50 (U-251),GI50 (NCI-H460),GI50 (HT-29),GI50 (MOLT-4),GI50 (T47D)
CN(CC(=O)O)Cc1c[nH]c2ccccc12,> 100 µM (inactive),> 100 µM (inactive),> 100 µM (inactive),> 100,> 100 µM (inactive),> 100 µM (inactive),> 100 µM (inactive),> 100 µM (inactive),> 100 µM (inactive),> 100 µM (inactive),> 100 µM (inactive),> 100 µM (inactive),> 100 µM (inactive),> 100 µM (inactive),> 100 µM (inactive),> 100 µM (inactive),> 100 µM (inactive),> 100 µM (inactive),> 100 µM (inactive),
CSC1=C(C(=O)Nc2ccc(C)cc2)C(N)=NC1=O,> 100 µM (inactive),,> 100 µM (inactive),> 100,,> 100 µM (inactive),> 100 µM (inactive),> 100 µM (inactive),> 100 µM (inactive),> 100 µM (inactive),,> 100 µM (inactive),> 100 µM (inactive),,> 100 µM (inactive),> 100 µM (inactive),> 100 µM (inactive),> 100 µM (inactive),> 100 µM (inactive),> 100 µM (inactive)
C/C(=N/NC(=S)N1CCCCCC1)c1cccc(/C(C)=N\NC(=S)N2CCCCCC2)n1,1.84 µM (inactive),1.67 µM (inactive),1.7 µM (inactive),2.09,2.24 µM (inactive),2.43 µM (inactive),1.55 µM (inactive),1.89 µM (inactive),1.71 µM (inactive),2.38 µM (inactive),,2.3 µM (inactive),1.42 µM (inactive),1.01 µM (active),2.31 µM (inactive),2.32 µM (inactive),2.55 µM (inactive),2.16 µM (inactive),2.43 µM (inactive),2.31 µM (inactive)
CCCCCCCc1c(Cl)nc(Cl)nc1Cl,2.65 µM (inactive),,4.5 µM (inactive),3.66,8.85 µM (inactive),7.43 µM (inactive),2.36 µM (inactive),16.9 µM (inactive),2.13 µM (inactive),5.82 µM (inactive),,7.11 µM (inactive),4.31 µM (inactive),6.35 µM (inactive),3.72 µM (inactive),4.89 µM (inactive),12.8 µM (inactive),4.04 µM (inactive),1.15 µM (inactive),12.2 µM (inactive)
CC(=O)N(C(C)=O)n1c(Cc2ccc(Cl)cc2)n[nH]c1=O,> 100 µM (inactive),> 100 µM (inactive),> 100 µM (inactive),> 100,> 100 µM (inactive),> 100 µM (inactive),> 100 µM (inactive),> 64.4 µM (inactive),> 100 µM (inactive),> 100 µM (inactive),> 100 µM (inactive),> 100 µM (inactive),> 100 µM (inactive),> 100 µM (inactive),> 100 µM (inactive),> 100 µM (inactive),> 100 µM (inactive),> 100 µM (inactive),> 100 µM (inactive),
O=c1[nH]nc(Cc2ccc(Cl)cc2)n1O,> 100 µM (inactive),> 100 µM (inactive),> 100 µM (inactive),> 100,> 100 µM (inactive),> 100 µM (inactive),> 100 µM (inactive),> 100 µM (inactive),> 100 µM (inactive),> 100 µM (inactive),,> 100 µM (inactive),> 100 µM (inactive),> 100 µM (inactive),> 100 µM (inactive),> 100 µM (inactive),> 100 µM (inactive),> 100 µM (inactive),> 100 µM (inactive),> 100 µM (inactive)
Cc1ccc2c(c1)CC1(Cc3cccc(C)c3C1=O)C2=O (stereo unspecified),> 10 µM (inactive),,50.7 µM (inactive),> 100,37.3 µM (inactive),88.5 µM (inactive),> 100 µM (inactive),> 100 µM (inactive),64.4 µM (inactive),48.4 µM (inactive),,> 100 µM (inactive),32.3 µM (inactive),> 100 µM (inactive),> 100 µM (inactive),> 100 µM (inactive),69.7 µM (inactive),51.3 µM (inactive),42.6 µM (inactive),> 10 µM (inactive)
O=C(O)c1ccc(C(O)(c2ccccc2)c2ccccc2)cc1,> 100 µM (inactive),,,> 100,> 100 µM (inactive),> 100 µM (inactive),> 100 µM (inactive),> 100 µM (inactive),> 100 µM (inactive),> 100 µM (inactive),> 100 µM (inactive),> 100 µM (inactive),> 100 µM (inactive),> 100 µM (inactive),> 100 µM (inactive),> 100 µM (inactive),,,> 100 µM (inactive),> 100 µM (inactive)
COC1/C=C/C(C)C(C(C)C(OC)C(C)CCC(=O)C(C)C(CC(=O)O)OC)OC(=O)/C=C/C=C(\C)CC(OC)C(OC)C2=CC(=O)O[C@@H](C(C)C(OC)CC(OC)/C=C/C(C)C(O)C1)[C@H]2O (stereo partly specified),0.0681 µM (active),0.198 µM (active),0.0339 µM (active),0.0611,0.265 µM (active),0.0879 µM (active),0.0337 µM (active),0.0968 µM (active),0.0286 µM (active),0.0479 µM (active),,0.0212 µM (active),0.0536 µM (active),0.188 µM (active),0.164 µM (active),0.0416 µM (active),0.0311 µM (active),0.026 µM (active),0.106 µM (active),0.135 µM (active)
O=[N+]([O-])c1cccc(C2N3CCCCC3[C@@H]3c4[nH]c5ccccc5c4CCN23)c1 (stereo partly specified),,10.1 µM (inactive),16 µM (inactive),10.4,16.9 µM (inactive),17.8 µM (inactive),31.4 µM (inactive),15.1 µM (inactive),14.5 µM (inactive),6.79 µM (inactive),,16.3 µM (inactive),14.2 µM (inactive),15.7 µM (inactive),12.4 µM (inactive),14.1 µM (inactive),16.4 µM (inactive),6.82 µM (inactive),5.85 µM (inactive),
Cc1ccc(S(=O)(=O)Nn2c(C)cc3ccc(S(=O)(=O)Nc4ccccc4[N+](=O)[O-])cc3c2=O)cc1,> 100 µM (inactive),39.4 µM (inactive),94.6 µM (inactive),> 100,> 100 µM (inactive),> 100 µM (inactive),> 100 µM (inactive),17.6 µM (inactive),13.6 µM (inactive),38.9 µM (inactive),> 100 µM (inactive),> 100 µM (inactive),,74.1 µM (inactive),> 100 µM (inactive),> 100 µM (inactive),77.3 µM (inactive),> 100 µM (inactive),> 100 µM (inactive),
Cc1cc(C)n(C(=O)CSc2nc3ccc(I)cc3c(=O)n2Cc2ccccc2)n1,73.6 µM (inactive),47.4 µM (inactive),15.5 µM (inactive),30.4,> 100 µM (inactive),58.9 µM (inactive),24.9 µM (inactive),29.8 µM (inactive),97.1 µM (inactive),80.5 µM (inactive),,> 100 µM (inactive),25.2 µM (inactive),58.6 µM (inactive),65.8 µM (inactive),35.8 µM (inactive),36.4 µM (inactive),> 100 µM (inactive),> 100 µM (inactive),23.2 µM (inactive)
COC1(OC)C2(Cl)C3=CCCC=C3C1(Cl)C(Cl)=C2Cl,,16.9 µM (inactive),21.5 µM (inactive),27.5,23.7 µM (inactive),26 µM (inactive),32.2 µM (inactive),25.1 µM (inactive),13.2 µM (inactive),25.5 µM (inactive),,30.2 µM (inactive),14.3 µM (inactive),17.4 µM (inactive),21.9 µM (inactive),30.3 µM (inactive),26.5 µM (inactive),20.6 µM (inactive),18.4 µM (inactive),
O=S(=O)(O)c1ccc(/N=N/c2ccc(/N=N/c3c(O)ccc4cc(S(=O)(=O)O)ccc34)cc2)cc1,> 100 µM (inactive),> 100 µM (inactive),> 100 µM (inactive),> 100,> 100 µM (inactive),> 100 µM (inactive),> 100 µM (inactive),> 100 µM (inactive),> 100 µM (inactive),> 100 µM (inactive),> 100 µM (inactive),> 100 µM (inactive),> 100 µM (inactive),> 100 µM (inactive),> 100 µM (inactive),> 100 µM (inactive),> 100 µM (inactive),> 100 µM (inactive),> 100 µM (inactive),
NCCNCCNc1ccc(NCCNCCN)c2c1C(=O)c1c(O)ccc(O)c1C2=O,> 100 µM (inactive),,> 100 µM (inactive),> 100,> 100 µM (inactive),> 100 µM (inactive),> 100 µM (inactive),99.3 µM (inactive),> 100 µM (inactive),> 100 µM (inactive),> 100 µM (inactive),> 100 µM (inactive),> 100 µM (inactive),> 100 µM (inactive),> 100 µM (inactive),> 100 µM (inactive),8.75 µM (inactive),> 100 µM (inactive),14 µM (inactive),
